Series [1] concerns KCKO mouse pancreatic tumors. The series can be described thus: Syngeneic subcutaneous KCKO pancreatic tumor model. It counts as in vivo, C57BL/6 mice. The source says:
FIG. 7 illustrates changes in mean tumor volume (in mm^3) following administration to interval of C57BL/6 mice with established, syngeneic, subcutaneous KCKO mouse pancreatic tumors over a period of 10 days for SW V-49s. Erastin, SV119, a mixture of Erastin and SV119, and a vehicle control. […] Note in FIG. 7 the decrease in tumor volume from approx. 40 mm^3 to approx. 20 mm^3 in SW V 49s-treated mice, compared to an increase from approx. 40 mm^3 to approx. 140 mm^3 for other treatments.
In these experiments, in a survival study of the mice reported in Example 9, the group which received SW V-49s survived at 100% (FIG. 8). In all other groups, the mean survival clustered at around 18 days.
Animal studies were performed according to the animal studies protocol approved by Washington University Institutional Animal Care Facility. In vivo studies with mice were performed to compare the effects of SW V-49s, SV119. Erastin, a combination of SV119 with Erastin, and vehicle. The vehicle used in the in vivo studies is a mixture of 25% cremophor and 75% H2O. C57BL/6 mice (6 weeks old. National Cancer Institute Laboratories) were injected in the right flank with 200 μL single cell suspension of KCKO cells in RPMI medium (25×10^4/10^5 cells per mouse). Mice were randomized into four groups (n=15). Treatment was started when the mean tumor diameter was ^˜5 mm. Mice received daily intra peritoneal injections with 375 nmoles in 100 μL/dose of SW V-49s and vehicle for 10 days SV119. Erastin, equimolar mix of SV119 and Erastin. Tumors were measured every other day with a digital caliper. Several mice from different treatment groups were sent to the Division of Comparative Medicine in our institution for pathologic evaluation. Blood was collected for complete blood count (CBC) and biochemical analysis (AST, ALT, BUN, total bilirubin, and Cr). Organs were examined grossly and histologically.

Series [2] concerns caspase 8. The series can be described thus: CASPASE-GLO caspase 8 assay in AsPC-1 cells. It counts as cell-based, human. The following applies: 4 μM, 24 hours, FIG. 12C. On the procedure: (§1) In these experiments, caspase-3/7.8 and 9 activities were measured In AsPC-1 cells using the corresponding CASPASE-GLO® Assay according to the manufacturer's instructions (Promega, Madison. Wis.). This assay is based on a caspase-specific substrate, which is cleaved to release aminoluciferin, a substrate of luciferase that results in caspase-specific luminescence signals. Cells were seeded at a density of 2×10^4 in white 96-well, clear bottom plates for 24 hours before treatment with 4 μM of compounds. The contents were then mixed using a plate shaker for 30 seconds, thereafter incubated at room temperature for 90 minutes. Luminescence signal was measured using a multi-mode microplate reader (BioTek). Assay was performed in triplicates, and the caspase activity of DMSO was considered as a base line.
(§2) The present inventors have shown that SV119 induces caspase-3 dependent apoptosis (Kashiwagi, H., el al. Mol Cancer 2007; 6:48). In these experiments, AsPC-1 cells were treated with 4 μM of SW V-49s. SV119, Erastin, and equimolar mixture of SV119 and Erastin for 24 hours. Using CASPASE-GLO® Assays, Caspase-3 level was measured to assess the activity of SW 119 domain of the SW V-49s compound and Caspase-8 and 9 levels were measured to identify which apoptotic pathway was involved.

For series [3], the system named is caspase 9. Briefly: CASPASE-GLO caspase 9 assay in AsPC-1 cells. It is filed as cell-based, human. The following applies: 4 μM, 24 hours, DMSO baseline, FIG. 12B. On the procedure: as §1, §2
Series [4] concerns SYO-1 Synovial sarcoma (SS) xenografts. Briefly: SYO-1 synovial sarcoma xenograft. The following applies: 300 nmoles for 14 days; FIG. 14E. It counts as in vivo, athymic nude mice. How it is done:
SYO-1 Synovial sarcoma (SS) xenografts were also treated with 300 nmoles SW V-49. […] FIG. 14E depicts athymic nude mice xenograft of SS cell line SYO-1 treated with SW V-49 (300 nmoles) for 14 days and then followed, p<0.0001. SYO xenografts required a smaller dose of SW V-49 to achieve results similar to those achieved against PDAC.

Series [5] deals with PDAC patient-derived xenograft. Briefly: PDAC patient-derived mouse xenograft model. It counts as in vivo. The following applies: daily i.p. 375 nmoles for 2 weeks. On the procedure:
SW V-49s was also tested on a PDAC patient-derived mouse xenograft model, which is more clinically relevant. Surgical PDAC specimens (2×2 mm pieces) were obtained and implanted subcutaneously into the flanks of anesthetized NOD SCID mice. Then, tumors were harvested and implanted in the right flank of Athymic female nude mice (6 weeks old. National Cancer Institute Laboratories). These mice were treated with daily i.p. injections of […] and vehicle for 14 days. Mice were randomized into 2 groups (n=15). Drug treatment was started when the mean tumors diameter was ^˜6 mm. Mice received daily intra peritoneal injections with 375 nmoles in 100 μL/mouse of SW V-49s and vehicle for 2 weeks. Tumors were measured every other day. Mice were euthanized when tumors reached a diameter of 2 cm or ulcerated.
(In general: Xenograft models place foreign cells or tissue in a host animal.)

Regarding `CCOc1ccccc1-n1c(CN2CCN(C(=O)COc3ccc(CNCCCCCCN4C5CCCC4CC(OC(=O)Nc4cc(C)ccc4OC)C5)cc3)CC2)nc2ccccc2c1=O.O=C(O)C(=O)O` (centres unmarked) [SW V-49s], the “change in tumor volume” value in series [1] (10 days, p<0.05, FIG. 7) is “significant decrease in tumor volume”. Further, the “effect on mean tumor volume / tumor growth” value in series [1] (daily i.p. 375 nmoles for 10 days, FIG. 14A) is “capable of reducing the mean tumor volume”. In addition, the median survival in series [1] (daily i.p. 375 nmoles for 10 days, Kaplan-Meier, FIG. 14B) is 48 days; in series [5] (vehicle 33 days, FIG. 14D) it was 58 days. Also, in series [1] (over a period of 10 days, from approx. 40 mm^3 at start, FIG. 7), the “mean tumor volume at end of treatment” value is recorded as “approx. 20 mm^3”. In series [1] (survival study, FIG. 8), the survival was found to be 100%. Also, the “increase in caspase 8” value in series [2] was “no significant increase”. Besides, the “caspase-9 fold above baseline” value in series [3] worked out at 3.2 fold. For the same molecule, in series [4], the tumor growth result is recorded as “Growth inhibition”. The tolerability result in series [5] was “tolerated the treatment well without obvious off-target effects”. Besides, the “growth rate of established tumors” value in series [5] (FIG. 14C) was “markedly slowed the growth rate of the established tumors”.
